Test results from patent US20240059668A1, “THIOHYDROXYPYRIDINE CHELATES” (LUMIPHORE, INC., priority 2020, published 2024).

Assay: Stability testing of macrocyclic copper chelates: DTPA challenge analysed by reversed phase HPLC
Assay type: physicochemical
Conditions: approximately 1 mM complex in 100 mM Tris-HCl buffer, pH 7.5, combined one to one with 55 mM DTPA, ambient temperature, 30 minutes
Experimental: Stability testing of macrocyclic copper chelates. (FIG. 1).
Example 13. Copper complexes 27, 39, and 44 were dissolved at approximately 1 mM concentration in 100 mM Tris-HCl buffer, pH 7.5. A solution of 55 mM diethylenetriaminepentaacetic acid (DTPA), pH 7.5 was prepared. Copper complexes were analyzed by reversed phase HPLC using an Agilent 1200 Series instrument equipped with a Zorbax Eclipse XDB-C18 4.6×150 mm 5 μm column. The method used an isocratic gradient of 0.1M triethylammonium bicarbonate, pH 7.5 (Solvent A) and 10-80% acetonitrile (Solvent B) as mobile phases. A solution of copper complex and DTPA solution combined in a ratio of one to one was prepared and mixed at ambient temperature for 30 minutes prior to analysis. Admixture of DTPA and copper complexes led to variable levels of dissociation of the copper complex, as quantified by the elution of the metal free ligand at shorter retention time.

stability of the copper complex in the presence of DTPA competitor (dissociation quantified by elution of the metal free ligand) | Substance
both are more stable than compound 27 | Copper complex of 16-(2-(4-(((S)-5-carboxy-5-(3-((S)-1,3-dicarboxypropyl)ureido)pentyl)carbamoyl)benzamido)ethyl)-1^6,11^6-dimercapto-2,10,12,20-tetraoxo-6- oxa-3,9,13,16,19-pentaaza-1,11(2,5)-dipyridin-1-iumacycloicosaphane 1^1,11^1-dioxide [Compound 27]
more stable than compound 27 | Copper(II) complex of 6-(2-aminoethyl)-1^6,11^6-dimercapto-2,10,12,25-tetraoxo-17,20-dioxa-3,6,9,13,24-pentaaza-1,11(2,5)-dipyridin-1-iumacyclopentacosaphane 1^1,11^1-dioxide [Compound 39]

Substance | stability of the copper complex in the presence of DTPA competitor (dissociation quantified by elution of the metal free ligand)
Copper(II) complex of 4-((2-(2-aminoethoxy)ethyl)carbamoyl)-1^6,10^6-dimercapto-2,9,11,24-tetraoxo-16,19-dioxa-3,8,12,23-tetraaza-1,10(2,5)-dipyridin-1- iumacyclotetracosaphane 1^1,10^1-dioxide, trifluoroacetate salt [Compound 44] | more stable in the presence of DTPA competitor than complex 39
